Experimental data reported in US9463197B2, “Method for treating abnormal polyglutamine-mediated disease” (NATIONAL TAIWAN NORMAL UNIVERSITY, priority 2013, dated 2016).

Legend:
293 ATXN3/Q75-GFP cells = experiment: ATXN3/Q75 aggregation assay (high content analysis); format: cell-based; conditions: at 100 nM; doxycycline and oxaliplatin 6 days; positive control
Procedure: 293 ATXN3/Q75-GFP cells were plated into 96-well (2×10^4/well) dishes, grown for 24 hr and treated with different concentrations of the trehalose or analogs (100 nM˜100 μM) and suberoylanilide hydroxamic acid (SAHA, Cayman Chemical) for 8 hr. Then, doxycycline (10 μg/mL, BD) was added to the medium in each well to induce ATXN3/Q75-GFP expression for 6 days. Oxaliplatin (5 μM, Sigma) was also added to increase aggregate accumulation through inhibition of cell division. Then, cells were stained with Hoechst 33342 (0.1 μg/mL, Sigma) and aggregation percentage was assessed by high content analysis (HCA) system (ImageXpressMICRO, Molecular Devices), with excitation/emission wavelengths at 482/536 (EGFP).
In the present example, the influences of the trehalose and analogs and HDAC inhibitor SAHA in the ATXN3/Q75-GFP cells were respectively examined. After 6 days of the treatment of doxycycline and oxaliplatin, the fluorescence microscopy images were observed, and aggregation percentage of ATXN3/Q75-GFP cells was assessed by high-content analysis system. The result was shown in FIG. 3, as a positive control, HDAC inhibitor SAHA reduced the ATXN3/Q75 aggregation to 85% (at 100 nM) as compared to untreated cells (100%).

porcine kidney trehalase = molecular target: T1, porcine kidney trehalase (Sus scrofa, UniProt I3LIR5); experiment: Inhibition of analogs against trehalase activity (glucose from trehalose, HPLC); format: biochemical; conditions: preincubated 30 min at 37°C
T1 sequence (I3LIR5 24-583): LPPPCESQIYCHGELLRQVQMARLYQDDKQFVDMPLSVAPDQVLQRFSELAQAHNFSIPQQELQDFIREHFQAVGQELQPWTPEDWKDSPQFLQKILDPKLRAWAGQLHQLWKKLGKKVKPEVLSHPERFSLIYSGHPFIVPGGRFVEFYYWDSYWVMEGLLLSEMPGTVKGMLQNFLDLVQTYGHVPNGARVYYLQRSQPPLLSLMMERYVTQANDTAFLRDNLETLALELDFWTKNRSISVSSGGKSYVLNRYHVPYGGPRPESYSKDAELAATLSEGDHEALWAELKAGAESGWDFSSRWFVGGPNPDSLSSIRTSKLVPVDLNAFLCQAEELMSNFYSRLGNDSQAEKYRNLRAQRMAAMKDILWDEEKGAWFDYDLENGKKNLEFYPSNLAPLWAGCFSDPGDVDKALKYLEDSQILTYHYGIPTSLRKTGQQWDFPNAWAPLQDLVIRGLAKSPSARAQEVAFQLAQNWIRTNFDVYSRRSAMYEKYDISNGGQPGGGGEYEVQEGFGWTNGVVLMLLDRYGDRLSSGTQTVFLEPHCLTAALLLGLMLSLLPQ
Procedure: Hydrolysis of trehalose and analogs was tested using porcine kidney trehalase (Sigma-Aldrich, T8778). The standard reaction was performed by adding 0.001 unit of trehalase into 50 μl reaction solution containing 135 mM citric acid (pH 5.7) and 28 mM trehalose or trehalose analogs. […] The standard reaction was performed by adding 0.001 unit of trehalase into 50 μl reaction solution containing 135 mM citric acid (pH 5.7) and 44.8 mM α-D-lactulose, 44.8 mM α-D-melibiose, 0.2 μM validamycin A, or 0.2 μM validoxylamine A. Trehalase was incubated with analog for 30 min at 37° C., and the reaction was then started by addition of trehalose. After incubation at 37° C. for 2 hr, the reaction was terminated by heating the mixture in boiling water for 15 min. The activity of trehalase was assayed by measuring the amount of glucose produced from trehalose. The amount of carbohydrates after each enzymatic reaction was measured using a high-performance liquid chromatography (HPLC) system (Schambeck SFD 2100) equipped with an refractive index (RI) detector (SFD, RI 2000) at a flow rate of 1 ml/min. A carbohydrate analysis column (Shodex SUGAR SZ5532, 6.0 mm ID×150 mm L) equilibrated with 75% acetonitrile, 24% Milli-Q water, and 1% formic acid was used. The RI detector and column oven temperature were set to 40 and 60° C., respectively.
Hydrolysis of trehalose, lactulose and melibiose (28 mM) was tested using porcine kidney trehalase (1 mU).

SMILES	Inhibition of trehalase activity (glucose generated from trehalose) (porcine kidney trehalase; 44.8 mM analog)	Inhibition of trehalase activity (glucose generated from trehalose) (porcine kidney trehalase; 0.2 μM inhibitor)	other results
O=C(CCCCCCC(=O)Nc1ccccc1)NO [SAHA, suberoylanilide hydroxamic acid]	–	–	ATXN3/Q75 aggregation as compared to untreated cells (100%) (293 ATXN3/Q75-GFP cells): 85%
OC[C@H]1O[C@@H](O[C@@H]2[C@@H](CO)O[C@](O)(CO)[C@H]2O)[C@H](O)[C@@H](O)[C@H]1O [lactulose, α-D-lactulose]	did not inhibit the trehalase activity	–	–
OC[C@H]1O[C@H](OC[C@H]2O[C@H](O)[C@H](O)[C@@H](O)[C@@H]2O)[C@H](O)[C@@H](O)[C@H]1O [melibiose, D-(+)-melibiose]	did not inhibit the trehalase activity	–	–
OCC1=C[C@@H](N[C@H]2C[C@H](CO)[C@@H](O[C@H]3O[C@@H](CO)[C@H](O)[C@@H](O)[C@@H]3O)[C@H](O)[C@H]2O)[C@H](O)[C@@H](O)[C@@H]1O [validamycin A]	–	can inhibit the trehalase activity	–
OCC1=C[C@H](N[C@H]2C[C@H](CO)[C@@H](O)[C@H](O)[C@H]2O)[C@H](O)[C@@H](O)[C@@H]1O [validoxylamine A]	–	can inhibit the trehalase activity	–
